Inhibition data for 14 molecules are collected here from PubChem BioAssay AID588585 (The Scripps Research Institute Molecular Screening Center, 2011).

Structures are written as SMILES. Active and inactive are the calls of the source.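 The calls were made as follows: active = inhibition of probe labelling of the enzyme band in the gel above 60%; inactive = inhibition at or below 60%.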

For the assay, the system named is Fam108b (ABHD17B) serine hydrolase [Mus musculus]. The assay can be described thus: Fam108b hydrolase inhibitors in membrane proteome – cell lysate, gel-based competitive ABPP, full-length membrane form, powders, SAR follow-up (AID 588585). As to conditions: competitive ABPP FP-Rh gel, at 5 µM, hits give high values.

With `O=c1[nH]c(=S)[nH]c2scc(-c3ccccc3)c12`, the inhibition was 0% (inactive).

For `O=c1[nH]c(-c2ccccc2)nc2scc(-c3ccccc3)c12`, the inhibition is 0% (inactive). To `O=c1[nH]c(=S)[nH]c2scc(-c3cccs3)c12` belongs 0% (inactive); to `COc1ccc(-c2csc3cc(-c4ccccc4Cl)oc(=O)c23)cc1`, 0% (inactive). Regarding `O=c1[nH]c(-c2cccs2)nc2scc(-c3ccccc3)c12`, the inhibition was 0% (inactive). Consider `Fc1ccccc1-c1nc2scc(-c3cccs3)c2c(=S)s1`, for which the inhibition was 0% (inactive).

Turning to `O=c1oc(-c2ccco2)cc2scc(-c3ccc(Br)cc3)c12`, the inhibition was 0% (inactive). To `O=c1[nH]c(=O)c2c(-c3ccccc3)csc2[nH]1` belongs 0% (inactive). Then `Cc1ccc(C2NC(=O)c3c(sc4c3CCCC4)N2)cc1` (centres undefined), with 0% (inactive). Then `CC(C)(C)c1nc2scc(-c3ccccc3)c2c(=S)s1`, with 0% (inactive). As for `O=c1[nH]c(-c2ccccc2)nc2scc(-c3cccs3)c12`, the inhibition is 0% (inactive).

Take `Cc1ccc(-c2csc3cc(-c4ccc(Br)cc4)oc(=O)c23)cc1`: the inhibition was 0% (inactive). To `COc1ccc(C2NC(=O)c3c(sc(C)c3C)N2)cc1` (centres undefined) belongs 0% (inactive). For `O=c1c2c(-c3ccccc3)csc2ncn1Cc1ccccc1`, the inhibition was 0% (inactive).
